{"source": "patent US20210198613A1", "about": "“MICROELECTRODE ARRAY AND USES THEREOF” (AXOSIM, INC., priority 2018, published 2021)", "key": {"[1]": {"test_system": "neuronal cell death in vitro", "conditions": "cited from earlier work"}, "[2]": {"test_system": "embryonic dorsal root ganglion (DRG) explants", "assay": "Nerve-On-A-Chip compound action potential (CAP) electrophysiology", "type": "cell-based, rat", "conditions": "40 μM, 48-hr application"}, "[3]": {"test_system": "embryonic dorsal root ganglion (DRG) explants", "conditions": "40 μM, 48-hr application"}, "[4]": {"test_system": "embryonic dorsal root ganglion (DRG) explants", "conditions": "cited from earlier work"}}, "note": "Read-outs that look alike come from different tables or passages of the source.", "data": [{"smiles": "CCCCCC", "note": "[n-hexane]", "values": [{"measurement": "In Vitro Neurotoxic dose", "setting": "[1]", "value": 765, "unit": "mM"}]}, {"smiles": "C=C[C@@]1(C)CC(=O)[C@]2(O)[C@@]3(C)[C@@H](O)CCC(C)(C)[C@@H]3[C@H](O)[C@H](OC(C)=O)[C@@]2(C)O1", "note": "[forskolin]", "values": [{"measurement": "reduction in CAP amplitude", "setting": "[2]", "value": "~50", "unit": "%"}, {"measurement": "reduction in conduction velocity", "setting": "[2]", "value": "~50", "unit": "%"}, {"measurement": "dysmyelination by histology", "setting": "[3]", "value": "strong evidence of dysmyelination"}, {"measurement": "increase in G-ratio (thinning of myelin sheath)", "setting": "[3]; histology, data not shown", "value": 50, "unit": "%"}, {"measurement": "reduction in % myelinated axons", "setting": "[3]; histology, data not shown", "value": 70, "unit": "%"}]}, {"smiles": "NC1=N[C@H](O)[C@H]2[C@H]3O[C@]4(O)O[C@@H]([C@@H](O)[C@@]2(N1)[C@@H]4O)[C@]3(O)CO", "note": "[tetrodotoxin]", "values": [{"measurement": "effect on CAP population responses", "setting": "[4]", "value": "reversibly abolished"}]}, {"smiles": "[CH3][Hg][Cl]", "note": "[Methylmercury]", "values": [{"measurement": "In Vitro Neurotoxic dose", "setting": "[1]; literature value, used as acute 48-hr dose of the planned pilot study", "value": 10, "unit": "mM"}]}]}
